The record followed here is US20250353864A1, “INDAZOLE CONTAINING MACROCYCLES AND THEIR USE” (BLOSSOMHILL THERAPEUTICS, INC., priority 2022, published 2025).

Type in all cases: biochemical
The target of assay [1] is EGFR L858R/T790M mutant (Homo sapiens (Human), UniProt P00533, L858R/T790M). Nature of the assay: HotSpot radiometric kinase assay, EGFR L858R/T790M mutant. To be noted: 10 μM ATP. Here is the method:
(§1) Biochemical Assays for Inhibition of Wild-Type and Mutant EGFRs
(§2) Briefly, specific kinase/substrate pairs along with required cofactors were prepared in reaction buffer; 20 mM Hepes pH 7.5, 10 mM […], 1 mM EGTA, 0.02% Brij35, 0.02 mg/ml BSA, 0.1 mM Na3VO4, 2 mM DTT, 1% DMSO. Compounds were delivered into the reaction, followed […] later by addition of a mixture of ATP (Sigma, St. Louis MO) and ^33P ATP (Perkin Elmer, Waltham MA) to a final concentration of 10 μM. Reactions were carried out at room temperature for 120 min, followed by spotting of the reactions onto P81 ion exchange filter paper (Whatman Inc., Piscataway, NJ). Unbound phosphate was removed by extensive washing of filters in 0.75% phosphoric acid. […] IC50 values and curve fits were obtained using Prism (GraphPad Software).

Assay [2] addresses EGFR Δ746-750/C797S mutant (Homo sapiens (Human), UniProt P00533, C797S/DEL746-750). As to the kind of experiment: HotSpot radiometric kinase assay, EGFR Δ746-750/C797S mutant. To be noted: 10 μM ATP. Here is the method:
as §1, §2

For assay [3], the target named is EGFR WT (Homo sapiens (Human), UniProt P00533). As to the kind of experiment: HotSpot radiometric kinase assay (Reaction Biology), EGFR WT. To be noted: 10 μM ATP. Here is the method: as §1, §2
Chain of EGFR WT (P00533 25-1210): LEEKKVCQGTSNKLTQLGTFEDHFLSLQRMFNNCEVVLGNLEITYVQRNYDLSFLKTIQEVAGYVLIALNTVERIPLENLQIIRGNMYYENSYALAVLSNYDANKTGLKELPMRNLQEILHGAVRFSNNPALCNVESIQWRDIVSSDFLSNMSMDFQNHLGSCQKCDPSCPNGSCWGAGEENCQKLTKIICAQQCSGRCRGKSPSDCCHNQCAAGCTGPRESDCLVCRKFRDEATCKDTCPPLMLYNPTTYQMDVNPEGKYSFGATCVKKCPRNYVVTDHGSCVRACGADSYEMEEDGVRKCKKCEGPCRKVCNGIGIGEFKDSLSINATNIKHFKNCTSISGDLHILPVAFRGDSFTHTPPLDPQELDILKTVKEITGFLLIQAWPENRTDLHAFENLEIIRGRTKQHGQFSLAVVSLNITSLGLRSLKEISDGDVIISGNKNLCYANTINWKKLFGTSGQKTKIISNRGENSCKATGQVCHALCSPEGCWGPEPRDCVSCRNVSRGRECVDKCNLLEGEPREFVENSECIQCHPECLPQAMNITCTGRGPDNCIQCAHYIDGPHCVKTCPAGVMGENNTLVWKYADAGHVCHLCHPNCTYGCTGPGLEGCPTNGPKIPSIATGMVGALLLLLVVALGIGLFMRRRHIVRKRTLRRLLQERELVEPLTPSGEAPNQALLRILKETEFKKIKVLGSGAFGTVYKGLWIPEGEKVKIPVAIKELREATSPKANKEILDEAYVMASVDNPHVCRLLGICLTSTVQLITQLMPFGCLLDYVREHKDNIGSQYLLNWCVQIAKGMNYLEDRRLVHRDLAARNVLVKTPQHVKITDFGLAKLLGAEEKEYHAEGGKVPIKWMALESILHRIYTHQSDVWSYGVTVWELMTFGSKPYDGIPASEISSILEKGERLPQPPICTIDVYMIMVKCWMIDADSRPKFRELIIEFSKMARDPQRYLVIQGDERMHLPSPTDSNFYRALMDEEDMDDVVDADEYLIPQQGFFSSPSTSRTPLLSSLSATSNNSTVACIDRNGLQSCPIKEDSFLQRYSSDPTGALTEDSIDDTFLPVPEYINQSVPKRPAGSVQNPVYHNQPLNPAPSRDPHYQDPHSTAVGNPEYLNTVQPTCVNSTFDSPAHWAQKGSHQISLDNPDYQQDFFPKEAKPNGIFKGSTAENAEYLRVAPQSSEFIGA
In assay [4] the target is EGFR L858R mutant (Homo sapiens (Human), UniProt P00533, L858R). Nature of the assay: HotSpot radiometric kinase assay, EGFR L858R mutant. To be noted: 10 μM ATP. Here is the method: as §1, §2
Chain of EGFR L858R mutant (P00533 25-1210 L858R): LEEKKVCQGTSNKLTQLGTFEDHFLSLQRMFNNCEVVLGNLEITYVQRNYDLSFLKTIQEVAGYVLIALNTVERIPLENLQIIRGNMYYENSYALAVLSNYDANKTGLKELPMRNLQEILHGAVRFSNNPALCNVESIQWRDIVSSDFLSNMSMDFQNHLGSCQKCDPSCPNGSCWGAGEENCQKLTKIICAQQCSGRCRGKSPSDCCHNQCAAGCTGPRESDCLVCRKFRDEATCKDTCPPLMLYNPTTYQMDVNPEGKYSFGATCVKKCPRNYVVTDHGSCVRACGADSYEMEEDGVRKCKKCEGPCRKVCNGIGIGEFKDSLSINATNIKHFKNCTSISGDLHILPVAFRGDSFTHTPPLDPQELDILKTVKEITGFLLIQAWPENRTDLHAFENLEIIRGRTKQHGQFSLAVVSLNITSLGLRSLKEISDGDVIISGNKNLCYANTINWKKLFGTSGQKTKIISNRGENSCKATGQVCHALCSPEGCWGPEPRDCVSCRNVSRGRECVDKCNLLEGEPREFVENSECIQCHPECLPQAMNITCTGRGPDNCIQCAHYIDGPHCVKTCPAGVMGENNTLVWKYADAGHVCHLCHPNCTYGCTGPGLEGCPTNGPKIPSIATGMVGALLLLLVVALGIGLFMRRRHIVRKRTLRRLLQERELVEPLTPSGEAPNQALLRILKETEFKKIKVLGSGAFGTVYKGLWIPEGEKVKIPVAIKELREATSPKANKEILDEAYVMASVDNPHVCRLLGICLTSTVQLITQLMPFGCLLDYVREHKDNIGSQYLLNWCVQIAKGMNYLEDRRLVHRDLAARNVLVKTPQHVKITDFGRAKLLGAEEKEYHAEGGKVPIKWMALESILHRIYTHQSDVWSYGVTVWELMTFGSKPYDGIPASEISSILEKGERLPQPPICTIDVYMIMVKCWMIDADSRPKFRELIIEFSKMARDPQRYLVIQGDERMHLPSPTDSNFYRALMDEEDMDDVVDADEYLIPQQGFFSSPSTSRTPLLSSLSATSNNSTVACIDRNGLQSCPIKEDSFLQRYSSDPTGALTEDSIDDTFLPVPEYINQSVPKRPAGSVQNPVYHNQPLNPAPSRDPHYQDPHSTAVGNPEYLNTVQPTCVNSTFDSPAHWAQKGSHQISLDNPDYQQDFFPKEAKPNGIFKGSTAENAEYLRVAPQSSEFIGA
The target of assay [5] is EGFR (D770_N771insNPG) (Homo sapiens (Human), UniProt P00533, INS770NPG). Nature of the assay: HotSpot radiometric kinase assay, EGFR (D770_N771insNPG). The note with it: 10 μM ATP, read-out: EGFR (Δ770_N771insNPG) IC50. Here is the method:
as §1, §2

The target in assay [6] is EGFR L858R/T790M/C797S mutant (Homo sapiens (Human), UniProt P00533, C797S/L858R/T790M). As to the kind of experiment: HotSpot radiometric kinase assay, EGFR L858R/T790M/C797S mutant. To be noted: 10 μM ATP. Here is the method:
as §1, §2

For assay [7], the target named is EGFR Δ746-750 mutant (Homo sapiens (Human), UniProt P00533, DEL746-750). As to the kind of experiment: HotSpot radiometric kinase assay, EGFR Δ746-750 mutant. The note with it: 10 μM ATP. Here is the method:
as §1, §2

Structures are written as SMILES.

Chain of EGFR Δ746-750/C797S mutant (P00533 other isoform, or with tags, fused parts or gaps C797S/del 1-668/del 746-750 limits assumed): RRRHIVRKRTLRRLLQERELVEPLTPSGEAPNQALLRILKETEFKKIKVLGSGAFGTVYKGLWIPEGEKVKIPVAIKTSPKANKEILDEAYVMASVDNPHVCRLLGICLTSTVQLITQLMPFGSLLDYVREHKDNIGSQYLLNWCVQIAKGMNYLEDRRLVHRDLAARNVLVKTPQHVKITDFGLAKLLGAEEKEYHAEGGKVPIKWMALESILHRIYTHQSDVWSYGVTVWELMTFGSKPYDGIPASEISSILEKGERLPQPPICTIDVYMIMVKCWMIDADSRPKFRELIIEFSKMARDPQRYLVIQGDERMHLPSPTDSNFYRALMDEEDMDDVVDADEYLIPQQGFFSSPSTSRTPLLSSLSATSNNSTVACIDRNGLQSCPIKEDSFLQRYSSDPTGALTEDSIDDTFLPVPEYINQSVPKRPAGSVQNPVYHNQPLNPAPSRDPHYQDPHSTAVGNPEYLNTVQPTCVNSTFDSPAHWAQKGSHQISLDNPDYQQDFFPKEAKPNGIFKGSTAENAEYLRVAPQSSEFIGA
Chain of EGFR L858R/T790M mutant (P00533 25-1210 T790M/L858R): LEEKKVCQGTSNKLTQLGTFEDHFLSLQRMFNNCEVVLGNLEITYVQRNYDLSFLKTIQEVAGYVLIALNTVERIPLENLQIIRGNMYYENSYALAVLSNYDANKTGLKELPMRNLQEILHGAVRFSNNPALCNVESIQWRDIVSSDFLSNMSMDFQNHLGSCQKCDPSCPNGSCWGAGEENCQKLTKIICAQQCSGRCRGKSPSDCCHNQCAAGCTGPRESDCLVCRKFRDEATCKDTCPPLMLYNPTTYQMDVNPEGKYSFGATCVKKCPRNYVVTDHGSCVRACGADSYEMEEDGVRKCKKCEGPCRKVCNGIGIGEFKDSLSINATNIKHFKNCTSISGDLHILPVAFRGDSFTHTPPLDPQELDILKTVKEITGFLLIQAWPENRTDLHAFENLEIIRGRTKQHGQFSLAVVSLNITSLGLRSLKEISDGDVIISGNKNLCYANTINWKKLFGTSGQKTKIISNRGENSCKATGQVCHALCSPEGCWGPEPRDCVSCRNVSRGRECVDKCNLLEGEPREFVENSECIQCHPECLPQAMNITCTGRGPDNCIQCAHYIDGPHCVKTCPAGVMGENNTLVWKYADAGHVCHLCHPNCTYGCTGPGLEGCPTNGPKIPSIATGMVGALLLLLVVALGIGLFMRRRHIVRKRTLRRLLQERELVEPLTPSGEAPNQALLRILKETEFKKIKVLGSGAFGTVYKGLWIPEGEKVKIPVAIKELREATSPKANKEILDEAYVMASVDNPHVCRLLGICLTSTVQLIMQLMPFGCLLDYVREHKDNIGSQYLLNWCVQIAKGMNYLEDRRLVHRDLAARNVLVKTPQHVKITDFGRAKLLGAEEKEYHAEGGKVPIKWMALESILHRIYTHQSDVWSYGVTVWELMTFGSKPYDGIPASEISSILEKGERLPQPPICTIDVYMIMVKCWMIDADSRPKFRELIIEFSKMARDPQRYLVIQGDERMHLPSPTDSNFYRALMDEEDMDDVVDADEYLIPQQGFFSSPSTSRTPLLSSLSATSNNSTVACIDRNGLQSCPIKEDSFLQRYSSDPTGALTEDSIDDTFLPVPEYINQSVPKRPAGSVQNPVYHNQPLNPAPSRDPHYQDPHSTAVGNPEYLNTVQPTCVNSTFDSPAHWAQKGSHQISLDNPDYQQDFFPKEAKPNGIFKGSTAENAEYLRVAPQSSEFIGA
Chain of EGFR Δ746-750 mutant (P00533 other isoform, or with tags, fused parts or gaps del 1-668/del 746-750 limits assumed): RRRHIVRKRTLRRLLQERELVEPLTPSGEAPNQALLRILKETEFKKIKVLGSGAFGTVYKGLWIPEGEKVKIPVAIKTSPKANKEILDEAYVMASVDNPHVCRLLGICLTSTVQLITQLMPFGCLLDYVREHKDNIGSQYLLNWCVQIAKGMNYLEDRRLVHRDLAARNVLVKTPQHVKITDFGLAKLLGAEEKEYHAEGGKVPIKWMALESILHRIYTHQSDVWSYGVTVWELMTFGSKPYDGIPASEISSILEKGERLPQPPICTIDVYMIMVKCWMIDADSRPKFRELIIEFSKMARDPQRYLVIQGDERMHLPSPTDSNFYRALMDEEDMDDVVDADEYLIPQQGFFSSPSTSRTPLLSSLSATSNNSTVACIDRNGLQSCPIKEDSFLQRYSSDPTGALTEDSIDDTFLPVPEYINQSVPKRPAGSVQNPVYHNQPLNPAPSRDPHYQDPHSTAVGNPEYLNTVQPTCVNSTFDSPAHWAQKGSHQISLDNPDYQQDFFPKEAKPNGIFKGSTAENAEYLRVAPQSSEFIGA

On to `CCOc1nn(CCO)c2c1/C=C/c1n[nH]c3ccc(cc13)-c1c(C)nn(C)c1OC[C@H](C)N(C1CC1)C2` [Example 205, 2-[(11S,17E)-12-cyclopropyl-16-ethoxy-6,8,11-trimethyl-2,8,10,11,12,13-hexahydro-14H-3,5-ethenotripyrazolo[3,4-f:3′,4′-j:4″,3″- n][1,4]oxazacyclopentadecin-14-yl]ethan-1-ol], for which the IC50 in assay [1] was 0.001 µM; in assay [2], 0.00142 µM; in assay [3] it was 0.0583 µM; in assay [4] it was 0.0163 µM; in assay [5] it was 0.137 µM; in assay [6] it was 0.00113 µM. In assay [7], the midpoint of inhibition, the IC50, lay at 0.00517 µM.

As for `C[C@H]1CN(C)Cc2c(c(OC3CCN(S(C)(=O)=O)CC3)nn2CCO)/C=C/c2n[nH]c3ccc(cc23)-c2cnn(C)c2O1` [Example 175, 2-[(10S,17E)-16-{[1-(methanesulfonyl)piperidin-4-yl]oxy}-8,10,12-trimethyl-2,8,10,11,12,13-hexahydro-14H-3,5-ethenotripyrazolo[3,4-f:3′,4′-j:4″,3″- n][1,4]oxazacyclopentadecin-14-yl]ethan-1-ol], the IC50 turned out to be 0.00206 µM in assay [1]; 0.00897 µM in assay [2]; 0.176 µM in assay [3]; 0.0426 µM in assay [4]; 0.713 µM in assay [5]; 0.00339 µM in assay [6]. Moreover, inhibition in assay [7] was half-maximal at 0.0678 µM (IC50).

`Cc1nn([C@H]2COCC[C@@H]2O)c2c1/C=C/c1n[nH]c3ccc(cc13)-c1cnn(C)c1OCCCO2` (racemic) [Example 86, (rac)-1,5-anhydro-2,4-dideoxy-2-[(17E)-8,16-dimethyl-2,8,11,12-tetrahydro-10H,14H-3,5-etheno[1,5]dioxacyclopentadecino[10,11-c:15,14-c′:6,7-c″ ]tripyrazol-14-yl]-L-threo-pentitol]: the IC50 in assay [1], in assay [2], in assay [3], in assay [4], in assay [5] and in assay [6] was more than 1 µM in each case. In addition, the half-maximal inhibitory concentration (IC50) in assay [7] was more than 1 µM.

For `Cc1nn(C)c2c1/C=C/c1n[nH]c3ccc(cc13)-c1cnn(C)c1CN(C)C[C@@H](C)O2` (single isomer, unassigned) [Example 96], the IC50 in assay [1] came to 0.00529 µM; in assay [2], 0.0941 µM; in assay [3] it was 0.242 µM; in assay [4], 0.0749 µM; in assay [5], 0.196 µM; in assay [6], 0.00945 µM. The same molecule came in with an IC50 in assay [7] of 0.285 µM.

Turning to `CCc1nn(C)c2c1/C=C/c1n[nH]c3ccc(cc13)-c1cnn(C)c1CN(C)CCO2` [Example 110, (17E)-16-ethyl-8,10,14-trimethyl-2,9,10,11,12,14-hexahydro-8H-3,5-ethenotripyrazolo[3,4-f:4′,3′-j:4″,3″- n][1,4]oxazacyclopentadecine], the IC50 in assay [1] worked out at 0.00499 µM; in assay [2] it was 0.0285 µM; in assay [3] it was 0.15 µM; in assay [4], 0.0304 µM; in assay [5], 0.112 µM; in assay [6], 0.00854 µM. In assay [7], this molecule registered an IC50 of 0.0144 µM.

As to `CCOC(=O)Cn1nc(OCC)c2c1CN(CC)C[C@H](C)Oc1c(cnn1C)-c1ccc3[nH]nc(c3c1)/C=C/2` [Example 218, ethyl [(10S,17E)-16-ethoxy-12-ethyl-8,10-dimethyl-2,8,10,11,12,13-hexahydro-14H-3,5-ethenotripyrazolo[3,4-f:3′,4′-j:4″,3″-n][1,4]oxazacyclopentadecin-14-yl]acetate], the IC50 in assay [1] came to 0.00199 µM; in assay [2], 0.0166 µM; in assay [3], 0.119 µM; in assay [4], 0.0288 µM; in assay [5], 0.161 µM; in assay [6], 0.00204 µM. This molecule also gave an IC50 in assay [7] of 0.00848 µM.

For orientation: IC50 means the concentration that inhibits the measured activity by half.
